Key:
Experiment in all cases: relative viability (nuclei count vs DMSO), 5 days (fraction); higher = more cells survive
Palbociclib + Alpelisib = compound: CC(=O)c1c(C)c2cnc(Nc3ccc(N4CCNCC4)cn3)nc2n(C2CCCC2)c1=O [Palbociclib] + Cc1nc(NC(=O)N2CCC[C@H]2C(N)=O)sc1-c1ccnc(C(C)(C)C(F)(F)F)c1 [Alpelisib] (partner 2 µM)
Procedure, shortened: (§1)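 Relative viability divides the nuclei count in treated wells by that in vehicle wells. Lung cancer cell lines were seeded in 1536-well plates, dosed by pin tool the next day, and fixed and stained after 5 days in one step with final 0.05% Triton X-100, 1% formaldehyde and 1 ug/ml Hoechst. Dosing was a single drug or a fixed anchor-drug dose plus five library-drug doses (not always all listed) in √10 steps, and values are medians of duplicate plates imaged at 4×.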

Palbociclib + Olaparib = compound: CC(=O)c1c(C)c2cnc(Nc3ccc(N4CCNCC4)cn3)nc2n(C2CCCC2)c1=O [Palbociclib] + O=C(c1cc(Cc2n[nH]c(=O)c3ccccc23)ccc1F)N1CCN(C(=O)C2CC2)CC1 [Olaparib] (partner 8 µM)
Procedure, shortened: as §1

Palbociclib + Linsitinib = compound: CC(=O)c1c(C)c2cnc(Nc3ccc(N4CCNCC4)cn3)nc2n(C2CCCC2)c1=O [Palbociclib] + C[C@]1(O)C[C@@H](c2nc(-c3ccc4ccc(-c5ccccc5)nc4c3)c3c(N)nccn32)C1 [Linsitinib] (partner 1 µM)
Procedure, shortened: as §1

Palbociclib + Phenformin = compound: CC(=O)c1c(C)c2cnc(Nc3ccc(N4CCNCC4)cn3)nc2n(C2CCCC2)c1=O [Palbociclib] + N=C(N)NC(=N)NCCc1ccccc1 [Phenformin] (partner 250 µM)
Procedure, shortened: as §1

Row | Cell Line | relative viability (Palbociclib + Alpelisib; first compound 0.01 µM) | relative viability (Palbociclib + Alpelisib; first compound 0.03162 µM) | relative viability (Palbociclib + Alpelisib; first compound 0.1 µM) | relative viability (Palbociclib + Alpelisib; first compound 0.3162 µM) | relative viability (Palbociclib + Alpelisib; first compound 1 µM) | relative viability (Palbociclib + Olaparib; first compound 0.01 µM) | relative viability (Palbociclib + Olaparib; first compound 0.03162 µM) | relative viability (Palbociclib + Olaparib; first compound 0.1 µM) | relative viability (Palbociclib + Olaparib; first compound 0.3162 µM) | relative viability (Palbociclib + Olaparib; first compound 1 µM) | relative viability (Palbociclib + Linsitinib; first compound 0.01 µM) | relative viability (Palbociclib + Linsitinib; first compound 0.03162 µM) | relative viability (Palbociclib + Linsitinib; first compound 0.1 µM) | relative viability (Palbociclib + Linsitinib; first compound 0.3162 µM) | relative viability (Palbociclib + Linsitinib; first compound 1 µM) | relative viability (Palbociclib + Phenformin; first compound 0.01 µM) | relative viability (Palbociclib + Phenformin; first compound 0.03162 µM) | relative viability (Palbociclib + Phenformin; first compound 0.1 µM) | relative viability (Palbociclib + Phenformin; first compound 0.3162 µM) | relative viability (Palbociclib + Phenformin; first compound 1 µM)
1 | LCLC-103H | 0.756 | 1.03 | 0.821 | 0.796 | 0.688 | 0.701 | 0.709 | 0.731 | 0.669 | 0.584 | 1.04 | 1.15 | 0.918 | 1 | 0.826 | 0.33 | 0.28 | 0.318 | 0.248 | 0.223
2 | LK-2 | 1.12 | – | 0.75 | 1.15 | 1.3 | 0.896 | 0.656 | 0.625 | 0.585 | 0.556 | 0.521 | 0.486 | 0.468 | 0.434 | 0.608 | 0.507 | – | 0.305 | 0.309 | 0.38
3 | LOU-NH91 | 0.753 | 0.609 | 0.545 | 0.576 | 0.55 | 0.959 | 0.696 | 0.677 | 0.664 | 0.559 | 1.02 | 0.79 | 0.668 | 0.6 | 0.605 | 0.832 | 0.563 | 0.503 | 0.504 | 0.472
4 | LU99A | 0.539 | 0.432 | 0.425 | 0.39 | 0.33 | 0.24 | – | 0.281 | 0.26 | 0.271 | 0.587 | 0.46 | 0.454 | 0.355 | 0.327 | 0.851 | 0.507 | 0.688 | 0.837 | 0.602
5 | LXF-289 | 0.99 | 0.988 | 1.01 | 0.923 | 0.767 | 1.1 | 1.08 | 0.951 | 0.969 | 0.865 | 0.914 | 0.959 | 0.99 | 0.88 | 0.734 | 0.51 | 0.294 | 0.452 | 0.462 | 0.378
6 | NCI-H23 | 0.705 | – | 0.585 | 0.588 | 0.432 | 0.375 | 0.311 | 0.325 | 0.305 | 0.289 | 0.794 | – | 0.509 | 0.46 | 0.398 | 0.795 | – | 0.704 | 0.781 | 0.506
7 | NCI-H322M | 0.805 | 0.895 | 0.689 | 0.676 | 0.496 | 0.762 | 0.709 | 0.702 | 0.599 | 0.445 | 0.892 | 0.836 | 0.718 | 0.78 | 0.638 | 0.741 | 0.605 | 0.553 | 0.502 | 0.409
8 | NCI-H358 | 0.777 | 0.709 | 0.395 | 0.312 | 0.257 | 0.571 | 0.486 | 0.452 | 0.292 | 0.136 | 0.673 | 0.559 | 0.354 | 0.247 | 0.229 | 0.308 | 0.278 | 0.197 | 0.238 | 0.106
9 | NCI-H441 | – | 0.635 | 0.677 | 0.426 | 0.418 | 0.657 | 0.449 | 0.45 | 0.452 | 0.298 | 0.652 | 0.383 | 0.483 | 0.487 | 0.275 | 0.896 | 0.627 | 0.623 | 0.57 | 0.35
10 | NCI-H460 | 0.476 | 0.413 | 0.275 | 0.217 | 0.0996 | 0.433 | 0.289 | 0.378 | 0.323 | 0.165 | 0.903 | 0.529 | 0.483 | 0.288 | 0.117 | 0.537 | 0.411 | 0.409 | 0.333 | 0.149
11 | NCI-H520 | 0.855 | 0.749 | 0.503 | 0.552 | 0.431 | 0.289 | 0.35 | 0.255 | 0.199 | 0.173 | 1.06 | 0.721 | 0.661 | 0.67 | 0.392 | 0.5 | 0.321 | 0.348 | 0.407 | 0.227
12 | NCI-H596 | 0.555 | 0.462 | 0.498 | 0.477 | 0.525 | 0.708 | 0.809 | 0.724 | 0.707 | 0.68 | 1.12 | 0.914 | 0.95 | 1.02 | 1.03 | 0.982 | – | 0.757 | 0.712 | 0.673
13 | NCI-H647 | 1.33 | 0.986 | 0.979 | 1.02 | 0.532 | 0.809 | 0.488 | 0.502 | 0.513 | 0.442 | 1.2 | 1.01 | 0.89 | 0.941 | 0.712 | 0.639 | 0.382 | 0.379 | 0.464 | 0.257
14 | NCI-H650 | 1.24 | – | 0.79 | 0.775 | 0.624 | 0.44 | – | 0.318 | 0.354 | 0.246 | 0.866 | – | 0.646 | 0.635 | 0.436 | 0.447 | 0.371 | 0.403 | 0.352 | 0.316
15 | NCI-H661 | 0.92 | 0.686 | 0.583 | 0.382 | 0.508 | 0.731 | 0.636 | 0.583 | 0.467 | 0.44 | 0.547 | 0.529 | 0.46 | 0.421 | 0.351 | 0.264 | 0.29 | 0.258 | 0.279 | 0.282
16 | NCI-H727 | 0.579 | 0.425 | 0.348 | 0.335 | 0.326 | 0.738 | 0.728 | 0.699 | 0.728 | 0.568 | 0.226 | 0.285 | 0.283 | 0.289 | 0.282 | 0.472 | 0.453 | 0.422 | 0.467 | 0.362
17 | NCI-H838 | 1.03 | 0.918 | 0.829 | 0.883 | 0.441 | 0.812 | 0.64 | 0.605 | 0.46 | 0.263 | 1.07 | 0.96 | 0.708 | 0.82 | 0.494 | 0.628 | 0.562 | 0.402 | 0.467 | 0.202

Source: the supplement of paper PMC10307832
